Patent publication US10689377B2 (Mirati Therapeutics, Inc., priority 2017, dated 2020)

target: KRas G12C (Homo sapiens, UniProt P01116, G12C); experiment: Cellular inhibition of KRas G12C measured by Phospho-ERK in NCI-H358 cells; type: cell-based; settings: pERK(Thr202/Tyr204) normalized with GAPDH, NCI-H358 cells, 3 hours; read-out: IC50
Outline: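 Ratio of phospho-ERK(Thr202/Tyr204) to GAPDH, read by near-infrared secondary antibodies on fixed, permeabilised NCI-H358 cells, expressed relative to DMSO control. Compound exposure was 3 h at 0.5% DMSO. IC50 values come from 4-parameter curve fits.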

Sequence of KRas G12C (P01116 1-188 isoform P01116-2 G12C): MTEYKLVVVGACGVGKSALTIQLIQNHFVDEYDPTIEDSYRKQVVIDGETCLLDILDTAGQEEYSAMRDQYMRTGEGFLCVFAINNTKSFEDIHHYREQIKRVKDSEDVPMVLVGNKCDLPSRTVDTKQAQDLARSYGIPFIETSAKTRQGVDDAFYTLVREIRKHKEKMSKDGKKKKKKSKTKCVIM

Question: With CN(C)C/C=C/C(=O)N1CCN(c2nc(OC[C@@H]3C[C@@H](O)CN3C)nc3c2CCN(c2cccc(F)c2C(F)(F)F)C3)C[C@@H]1CC#N [Example 342, 2-[(2S)-1-[(E)-4-(dimethylamino)but-2-enoyl]-4-[7-[3-fluoro-2-(trifluoromethyl)phenyl]-2-[[(2S,4R)-4-hydroxy-1-methyl-pyrrolidin-2-yl]methoxy]-6,8-dihydro-5H-pyrido[3,4-d]pyrimidin-4-yl]piperazin-2-yl]acetonitrile] as the molecule, how does the IC50 read?
Answer: Its IC50 is 0.0001 to 1 µM.

Question: C=CS(=O)(=O)N1CCN(c2nc(OC[C@@H]3CCCN3C)nc3c2CCN(c2cccc(C)c2C)C3)CC1 [Example 343, 7-(2,3-dimethylphenyl)-2-[[(2S)-methylpyrrolidin-2-yl]methoxy]-4-(4-vinylsulfonylpiperazin-1-yl)-6,8-dihydro-5H-pyrido[3,4-d]pyrimidine] was tested. Which IC50 did it give?
Answer: The IC50 was greater than 1 µM.

Question: For C=CC(=O)N1CCN(c2nc(OC[C@H]3CCCN3C)nc3c2CCN(c2cc(O)cc4ccccc24)C3)C[C@@H]1CC#N [Example 344, 2-[(2S)-4-[7-(3-hydroxy-1-naphthyl)-2-[[(2R)-1-methylpyrrolidin-2-yl]methoxy]-6,8-dihydro-5H-pyrido[3,4-d]pyrimidin-4-yl]-1-prop-2-enoyl-piperazin-2-yl]acetonitrile], which IC50 is on record?
Answer: Its IC50 is 0.0001 to 1 µM.

Question: For C=CC(=O)N1CCN(c2nc(OC[C@@H]3CCCN3C)nc3c2CCN(c2ccncc2C)C3)C[C@@H]1CC#N [Example 345, 2-[(2S)-4-[7-(3-methyl-4-pyridyl)-2-[[(2S)-1-methylpyrrolidin-2-yl]methoxy]-6,8-dihydro-5H-pyrido[3,4-d]pyrimidin-4-yl]-1-prop-2-enoyl-piperazin-2-yl]acetonitrile], which IC50 is on record?
Answer: Its IC50 is greater than 1 µM.

Question: With CN1CCC[C@H]1COc1nc2c(c(N3CCN(C(=O)/C=C/CN4CCOCC4)[C@@H](CC#N)C3)n1)CCN(c1cccc(Cl)c1C(F)(F)F)C2 [Example 346, 2-[(2S)-4-[7-[3-chloro-2-(trifluoromethyl)phenyl]-2-[[(2S)-1-methylpyrrolidin-2-yl]methoxy]-6,8-dihydro-5H-pyrido[3,4-d]pyrimidin-4-yl]-1-[(E)-4-morpholinobut-2-enoyl]piperazin-2-yl]acetonitrile] as the molecule, how does the IC50 read?
Answer: The IC50 was 0.0001 to 1 µM.

Question: CN1CCC[C@H]1COc1nc2c(c(N3CCN(C(=O)/C=C/CN4CCCC4)[C@@H](CC#N)C3)n1)CCN(c1cccc(Cl)c1C(F)(F)F)C2 [Example 347, 2-[(2S)-4-[7-[3-chloro-2-(trifluoromethyl)phenyl]-2-[[(2S)-1-methylpyrrolidin-2-yl]methoxy]-6,8-dihydro-5H-pyrido[3,4-d]pyrimidin-4-yl]-1-[(E)-4-pyrrolidin-1-ylbut-2-enoyl]piperazin-2-yl]acetonitrile] was tested. Which IC50 did it give?
Answer: The IC50 was 0.0001 to 1 µM.

Question: With C=CC(=O)N1CCN(c2nc(O[C@H](C)[C@H]3CCCN3C)nc3c2CCN(c2cc(O)cc4ccccc24)C3)C[C@@H]1CC#N [Example 348, 2-[(2S)-4-[7-(3-hydroxy-1-naphthyl)-2-[(1R)-1-[(2R)-1-methylpyrrolidin-2-yl]ethoxy]-6,8-dihydro-5H-pyrido[3,4-d]pyrimidin-4-yl]-1-prop-2-enoyl-piperazin-2-yl]acetonitrile] as the molecule, how does the IC50 read?
Answer: The IC50 was 0.0001 to 1 µM.

Question: C=CC(=O)N1CCN(c2nc(OC[C@@H]3CCCN3C)nc3c2CCN(c2c(C)ccc(F)c2C)C3)C[C@@H]1CC#N [Example 349, 2-((S)-1-acryloyl-4-(7-(3-fluoro-2,6-dimethylphenyl)-2-(((S)-1-methylpyrrolidin-2-yl)methoxy)-5,6,7,8-tetrahydropyrido[3,4-d]pyrimidin-4-yl)piperazin-2-yl)acetonitrile] was tested. Which IC50 did it give?
Answer: The IC50 was 0.0001 to 1 µM.

Question: C=CC(=O)N1CCN(c2nc(OC[C@@H]3CCN(C)C3)nc3c2CCN(c2cc(O)cc4ccccc24)C3)C[C@@H]1CC#N [Example 350, 2-((S)-1-acryloyl-4-(7-(3-hydroxynaphthalen-1-yl)-2-(((R)-1-methylpyrrolidin-3-yl)methoxy)-5,6,7,8-tetrahydropyrido[3,4-d]pyrimidin-4-yl)piperazin-2-yl)acetonitrile] was tested. Which IC50 did it give?
Answer: Its IC50 is 0.0001 to 1 µM.
